From US20180153995A1, “USE OF ANTIMICROBIAL POLYMERS FOR RE-SENSITIZATION OF MICROORGANISMS UPON EMERGENCE OF RESISTANCE TO ANTI-MICROBIAL AGENTS” (Technion Research & Development Foundation Limited, priority 2008, published 2018)
≈ marks a conversion by molar mass, not a printed value. Where “and” joins values, the source holds several entries; their conditions need not be identical. Equal entries are not always repeated. Where two headings read alike, the source gives them in different places.

What was measured:
S. aureus ATCC 29213 [1] = conditions: as determined by the Clinical and Laboratory Standard Institute; cited from earlier work
P. aeruginosa 8732 = assay: Antibiotic MIC by microdilution with or without sub-MIC polymer; type: cell-based, Pseudomonas aeruginosa
S. aureus ATCC 29213 [2] = assay: microbe, parasite or virus in culture; conditions: Staphylococcus aureus, ATCC29213, read-out: Oxacillin's MIC
Procedure: In parallel, MIC evolution was compared concomitantly for each new sub-culture, using bacteria harvested from control wells (wells cultured without antimicrobial agent from the previous sub-culture). The relative MIC was calculated for each experiment from the ratio of MIC obtained for subculture “n” to that obtained for first-time exposure.
The relative MIC was determined as the normalized ratio of the MIC obtained for a given subculture to the MIC of the control.
MICs were determined by microdilution susceptibility testing in 96-well plates using inocula of 10^5 bacteria per ml. Cell populations were evaluated by optical density measurements at 600 nm and were calibrated against a set of standards.
In parallel, MIC evolution was compared concomitantly for each new generation, using bacteria harvested from control wells (wells cultured without antimicrobial agent from the previous generation). The relative MIC was calculated for each experiment from the ratio of MIC obtained for subculture “n” to that obtained for first-time exposure. […] MICs were determined by microdilution susceptibility testing in 96-well plates. Cell populations were evaluated by optical density measurements at 600 nm and were calibrated against a set of standards.

S. aureus 15819 = assay: Antibiotic MIC by microdilution with or without sub-MIC polymer; type: cell-based, Staphylococcus aureus; conditions: S. aureus 15819
S. aureus 43300 = assay: as above; type: cell-based, Staphylococcus aureus
E. coli AG100/ks = assay: Antibiotic MIC with or without sub-MIC polymer (Tables 20, 21); type: cell-based, Escherichia coli
E. coli AG100 = assay: as above; type: cell-based, Escherichia coli
MRSA 15852 = type: cell-based, Staphylococcus aureus; conditions: S. aureus 15852
Summary of the method: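 Checkerboard combination testing against MRSA 15852; FIC index = A/MICA + B/MICB, with A and B the MICs of each agent in combination and MICA, MICB the MICs alone. Index <0.5 read as clear re-sensitizing, 0.5–4 as marginal or null, >4 as antagonism.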

ATCC 25923 = assay: microbe, parasite or virus in culture; type: cell-based, Staphylococcus aureus; conditions: Staphylococcus aureus, ATCC25923; read-out: MIC
Procedure: MICs were determined by microdilution susceptibility testing in 96-well plates (by Nunc) using inocula of 10^5 bacteria per ml. Cell populations were evaluated by optical density measurements at 620 nm and were calibrated against a set of standards. Hundred (100) μl of a bacterial suspension were added to 100 μl of culture medium (control) or to 100 μl of culture medium containing various polymer concentrations in 2-fold serial dilutions. Inhibition of proliferation was determined by optical density measurements at 620 nm after an incubation period of 24 hours at 37° C.

[3] = +¼ MIC (1.6 μM) C12(5-ene)KKNC12KNH2
[4] = +⅓ MIC (2.1 μM) C12(5-ene)KKNC12KNH2

Compound: Cc1onc(-c2ccccc2)c1C(=O)N[C@@H]1C(=O)N2[C@@H]1SC(C)(C)[C@@H]2C(=O)O [Oxacillin, oxacillin]
- Oxacillin's MIC per CLSI M100-S15 (S. aureus ATCC 29213 [1]): 0.125 to 0.5 µg/mL
- Antibiotic MIC (P. aeruginosa 8732): >512 µg/mL
- Antibiotic MIC (P. aeruginosa 8732; P. aeruginosa 8732, +½ MIC (3.12 μM) C16(9-ene)KKNC12KNH2): >512 µg/mL
- Antibiotic MIC (P. aeruginosa 8732; P. aeruginosa 8732, +⅓ MIC (2.1 μM) C16(9-ene)KKNC12KNH2): >512 µg/mL
- Antibiotic MIC (P. aeruginosa 8732; P. aeruginosa 8732, no polymer (None), Table 10): >512 µg/mL
- MIC (S. aureus ATCC 29213 [2]): 0.28 µM and 0.125 µg/mL
- Antibiotic MIC (S. aureus 15819; [3]): 2 µg/mL
- Antibiotic MIC (S. aureus 15819; +¼ MIC (1.6 μM) C12K(KNC12K)3NH2): 4 µg/mL
- Antibiotic MIC (S. aureus 15819; +¼ MIC (1.6 μM) C12KKNC12KNH2): 8 µg/mL
- Antibiotic MIC (S. aureus 15819; +½ MIC (3.12 μM) C12(5-ene)KKNC12KNH2): 1 µg/mL
- Antibiotic MIC (S. aureus 15819; +½ MIC (3.12 μM) C12K(KNC12K)3NH2): 0.5 to 1 µg/mL
- Antibiotic MIC (S. aureus 15819; +½ MIC (3.12 μM) C12KKNC12KNH2): 2 µg/mL
- Antibiotic MIC (S. aureus 15819; [4]): 2 µg/mL
- Antibiotic MIC (S. aureus 15819; +⅓ MIC (2.1 μM) C12K(KNC12K)3NH2): 2 µg/mL
- Antibiotic MIC (S. aureus 15819; +⅓ MIC (2.1 μM) C12KKNC12KNH2): 8 µg/mL
- Antibiotic MIC (S. aureus 15819; no polymer (None), Table 8): 4 µg/mL
- Antibiotic MIC (S. aureus 15819; no polymer (None), Table 11): 8 µg/mL
- Antibiotic MIC (S. aureus 15819; no polymer (None), Table 13): 8 µg/mL
- Antibiotic MIC (S. aureus 43300; [3]): 0.125 µg/mL
- Antibiotic MIC (S. aureus 43300; +¼ MIC (1.6 μM) C12KKNC12KNH2): 0.5 µg/mL
- Antibiotic MIC (S. aureus 43300; +¼ MIC (1.6 μM) C16(9-ene)KKNC12KNH2): 0.25 to 0.5 µg/mL
- Antibiotic MIC (S. aureus 43300; +½ MIC (3.12 μM) C12K(KNC12K)2NH2): 0.25 µg/mL
- Antibiotic MIC (S. aureus 43300; +½ MIC (3.12 μM) C12KKNC12KNH2): 0.25 µg/mL
- Antibiotic MIC (S. aureus 43300; +½ MIC (3.12 μM) C16(9-ene)KKNC12KNH2): 0.03 to 0.06 µg/mL
- Antibiotic MIC (S. aureus 43300; [4]): 0.125 µg/mL
- Antibiotic MIC (S. aureus 43300; +⅓ MIC (2.1 μM) C12K(KNC12K)2NH2): 0.25 µg/mL
- Antibiotic MIC, None (E. coli AG100/ks; antibiotic alone (Table 20)): >512 µg/mL
- Antibiotic MIC, None (E. coli AG100/ks; antibiotic alone (Table 21)): >512 µg/mL
- Antibiotic MIC in presence of C12K(NC8K)5NH2 (SEQ ID NO: 3), +¼ MIC (E. coli AG100/ks; polymer at ¼ of its MIC): >512 µg/mL
- Antibiotic MIC in presence of C12K(NC8K)7NH2 (SEQ ID NO: 4), +¼ MIC (E. coli AG100/ks; polymer at ¼ of its MIC): >512 µg/mL
- Antibiotic MIC in presence of C12K(NC8K)5NH2 (SEQ ID NO: 3), +½ MIC (E. coli AG100/ks; polymer at ½ of its MIC): >512 µg/mL
- Antibiotic MIC in presence of C12K(NC8K)7NH2 (SEQ ID NO: 4), +½ MIC (E. coli AG100/ks; polymer at ½ of its MIC): >512 µg/mL
- Antibiotic MIC in presence of C12K(NC8K)5NH2 (SEQ ID NO: 3), +⅓ MIC (E. coli AG100/ks; polymer at ⅓ of its MIC): >512 µg/mL
- Antibiotic MIC in presence of C12K(NC8K)7NH2 (SEQ ID NO: 4), +⅓ MIC (E. coli AG100/ks; polymer at ⅓ of its MIC): >512 µg/mL
- Antibiotic MIC, None (E. coli AG100; antibiotic alone (Table 20)): 512 µg/mL
- Antibiotic MIC, None (E. coli AG100; antibiotic alone (Table 21)): 512 µg/mL
- Antibiotic MIC in presence of C12K(NC8K)5NH2 (SEQ ID NO: 3), +¼ MIC (E. coli AG100; polymer at ¼ of its MIC): 256 µg/mL
- Antibiotic MIC in presence of C12K(NC8K)5NH2 (SEQ ID NO: 3), +½ MIC (E. coli AG100; polymer at ½ of its MIC): 32 to 64 µg/mL
- Antibiotic MIC in presence of C12K(NC8K)7NH2 (SEQ ID NO: 4), +½ MIC (E. coli AG100; polymer at ½ of its MIC): 32 to 64 µg/mL
- Antibiotic MIC (MRSA 15852; +¼ MIC (1.6 μM) C12KKNC12KNH2): 256 µg/mL
- Antibiotic MIC (MRSA 15852; +½ MIC (3.12 μM) C12KKNC12KNH2): 256 µg/mL
- Antibiotic MIC (MRSA 15852; +⅓ MIC (2.1 μM) C12KKNC12KNH2): 256 µg/mL
- Antibiotic MIC (MRSA 15852; no polymer (None), Table 11): 256 µg/mL
- MIC (ATCC 25923): 0.17 µg/mL (≈ 0.423 µM)
